The values below come from PubChem BioAssay (NCI).

Some test systems named below: NCI/ADR-RES ovarian; COLO 205 colon; A549 NSCLC; HCT-15 colon; K-562 leukemia; ACHN renal; T-47D breast; HCT-116 colon; HOP-92 NSCLC; SNB-19 CNS; OVCAR-4 ovarian; SK-MEL-5 melanoma; NCI-H226 lung; BT-549 breast; DU-145 prostate; HOP-62 NSCLC; UACC-62 melanoma; A498 renal; LOX IMVI melanoma; MDA-N.
Experiment in all cases: NCI-60 cell line screen, 48 h

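Five compound concentrations were applied to cells in 96-well plates for 48 hours; endpoints were derived by simple linear interpolation of the resulting dose-response curve. TGI denotes the concentration required for complete inhibition of growth.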

With `Cc1cc2c3c(nc4ccccc42)C(=O)c2ccccc2-c3n1`, the TGI with NCI/ADR-RES ovarian is 38.5 µM; in the assay on COLO 205 colon it was more than 100 µM; in the assay on A549 NSCLC, 44.9 µM; in the assay on HCT-15 colon it was 16.8 µM; in the assay with K-562 leukemia it was 15.1 µM; with ACHN renal, more than 100 µM. The TGI with T-47D breast is more than 100 µM; in the assay on HCT-116 colon, 75.4 µM; with HOP-92 NSCLC, more than 100 µM; in the assay with SNB-19 CNS, more than 100 µM; in the assay on OVCAR-4 ovarian, more than 100 µM; in the assay on SK-MEL-5 melanoma, 3.1 µM. For the same compound, the TGI was 67 µM in the assay with NCI-H226 lung; 48.4 µM with BT-549 breast; more than 100 µM in the assay on DU-145 prostate; 23.5 µM in the assay on HOP-62 NSCLC; 4.06 µM in the assay on UACC-62 melanoma; 42.3 µM with A498 renal.
For `CCCSCC(P(=O)(O)O)P(=O)(O)O`, the TGI with NCI/ADR-RES ovarian, in the assay on COLO 205 colon, in the assay on A549 NSCLC, in the assay on HCT-15 colon, with K-562 leukemia and in the assay on LOX IMVI melanoma was more than 100 µM in each case. The TGI in the assay with HCT-116 colon, in the assay with HOP-92 NSCLC, with SNB-19 CNS, in the assay with OVCAR-4 ovarian, with SK-MEL-5 melanoma and in the assay on NCI-H226 lung was more than 100 µM in each case. Besides, the TGI in the assay on HOP-62 NSCLC, in the assay with UACC-62 melanoma and in the assay on A498 renal was more than 100 µM in each case.
Turning to `Cc1ccc(-c2[nH]c(=O)n(C3OC(CO)C(O)C(O)C3O)c(=O)c2C#N)cc1` (stereo unspecified), the TGI with NCI/ADR-RES ovarian, in the assay on COLO 205 colon, with A549 NSCLC, in the assay with HCT-15 colon, in the assay on K-562 leukemia and in the assay with ACHN renal was more than 100 µM each time. Also, the TGI with T-47D breast, in the assay with HCT-116 colon, with HOP-92 NSCLC, in the assay with SNB-19 CNS, with OVCAR-4 ovarian and in the assay on SK-MEL-5 melanoma was more than 100 µM throughout. The TGI in the assay on NCI-H226 lung, in the assay on BT-549 breast, in the assay on DU-145 prostate, with HOP-62 NSCLC, in the assay with UACC-62 melanoma and with A498 renal was more than 100 µM each time.
As to `CCOP(=O)(OCC)C(c1ccc(F)cc1)N(C(=O)NC(F)(F)F)c1ccc(OC)cc1` (stereo unspecified), the TGI in the assay on MDA-N, with NCI/ADR-RES ovarian, in the assay with COLO 205 colon, in the assay with A549 NSCLC, in the assay with HCT-15 colon and with K-562 leukemia was more than 100 µM throughout. Also, the TGI in the assay with ACHN renal, in the assay on LOX IMVI melanoma, in the assay on HCT-116 colon, in the assay with SNB-19 CNS, with SK-MEL-5 melanoma and with NCI-H226 lung was more than 100 µM in each case. Moreover, the TGI in the assay with DU-145 prostate and in the assay on HOP-62 NSCLC was more than 100 µM in each case.
For `COc1ccc(C2=N/C(=C\c3ccccc3)C(=O)O2)cc1`, the TGI with NCI/ADR-RES ovarian is 43.4 µM; with A549 NSCLC, more than 100 µM; in the assay on HCT-15 colon it was more than 100 µM; in the assay on K-562 leukemia it was more than 100 µM; in the assay on ACHN renal, more than 100 µM; with HOP-92 NSCLC, more than 100 µM. Moreover, the TGI is more than 100 µM in the assay with SNB-19 CNS, more than 100 µM in the assay with OVCAR-4 ovarian, 98.1 µM with NCI-H226 lung and more than 100 µM with HOP-62 NSCLC.
Consider `COc1ccc2c(C)cc(=O)oc2c1OC`, for which the TGI in the assay on MDA-N, in the assay on NCI/ADR-RES ovarian, with COLO 205 colon, with A549 NSCLC, in the assay with HCT-15 colon and in the assay with K-562 leukemia was more than 100 µM throughout. Besides, the TGI with ACHN renal, in the assay on LOX IMVI melanoma, with HCT-116 colon, with SNB-19 CNS, in the assay on OVCAR-4 ovarian and with SK-MEL-5 melanoma was more than 100 µM in each case. Further, the TGI in the assay with NCI-H226 lung, in the assay on DU-145 prostate, in the assay with HOP-62 NSCLC, with UACC-62 melanoma and with A498 renal was more than 100 µM each time.
On to `CCN(CC)CCN(C(=Nc1ccccc1)N1CCOCC1)c1ccccc1`, for which the TGI in the assay on NCI/ADR-RES ovarian, in the assay on COLO 205 colon, with A549 NSCLC, in the assay on HCT-15 colon, with K-562 leukemia and in the assay with LOX IMVI melanoma was more than 100 µM in each case. Besides, the TGI with T-47D breast was more than 100 µM; with HCT-116 colon it was 89.8 µM; in the assay with SNB-19 CNS, more than 100 µM; in the assay with OVCAR-4 ovarian, more than 100 µM; in the assay with SK-MEL-5 melanoma it was more than 100 µM; with NCI-H226 lung it was more than 100 µM. In addition, the TGI in the assay with BT-549 breast, in the assay with DU-145 prostate, with HOP-62 NSCLC and with UACC-62 melanoma was more than 100 µM in each case.
For the compound `CC1=NS(=O)(=O)c2ccccc2N1`, the TGI in the assay on COLO 205 colon, with A549 NSCLC, in the assay with HCT-15 colon, in the assay on K-562 leukemia, in the assay on ACHN renal and in the assay on LOX IMVI melanoma was more than 100 µM throughout. Further, the TGI in the assay on HCT-116 colon, with HOP-92 NSCLC, in the assay with SNB-19 CNS, in the assay with OVCAR-4 ovarian, with SK-MEL-5 melanoma and with NCI-H226 lung was more than 100 µM throughout. Further, the TGI in the assay on HOP-62 NSCLC, with UACC-62 melanoma and in the assay on A498 renal was more than 100 µM in each case.
Take `CN(C)c1ccc(S(=O)Nc2ccccc2)cc1` (stereo unspecified): the TGI was more than 100 µM in the assay on NCI/ADR-RES ovarian; 63.1 µM with COLO 205 colon; more than 100 µM in the assay on A549 NSCLC; more than 100 µM in the assay on HCT-15 colon; more than 100 µM in the assay with K-562 leukemia; more than 100 µM with ACHN renal. Moreover, the TGI in the assay on LOX IMVI melanoma is more than 100 µM; in the assay with T-47D breast it was 65.6 µM; in the assay on HCT-116 colon, more than 100 µM; in the assay on SNB-19 CNS it was more than 100 µM; in the assay on OVCAR-4 ovarian, more than 100 µM; with SK-MEL-5 melanoma, 50.7 µM. The TGI in the assay with NCI-H226 lung was more than 100 µM; in the assay on BT-549 breast, 28.9 µM; in the assay on DU-145 prostate it was more than 100 µM; with HOP-62 NSCLC it was more than 100 µM; in the assay with UACC-62 melanoma, 81.6 µM.
Take `COc1ccc(NC(=O)CC(=O)N2N=C(N3c4ccccc4Sc4ccccc43)CC2c2ccccc2)cc1` (stereo unspecified): the TGI in the assay with NCI/ADR-RES ovarian, in the assay on COLO 205 colon, in the assay on A549 NSCLC, in the assay on HCT-15 colon, in the assay with K-562 leukemia and with ACHN renal was more than 100 µM throughout. Moreover, the TGI in the assay with T-47D breast, in the assay with HCT-116 colon, with HOP-92 NSCLC, with SNB-19 CNS, with OVCAR-4 ovarian and with SK-MEL-5 melanoma was more than 100 µM throughout. The TGI with NCI-H226 lung, with BT-549 breast, with DU-145 prostate, in the assay on HOP-62 NSCLC and with UACC-62 melanoma was more than 100 µM each time.
Consider `CCOC(=O)c1c(C)nc2c3ccccc3c(C#N)c(C)n12`, for which the TGI in the assay on NCI/ADR-RES ovarian, with A549 NSCLC, in the assay with HCT-15 colon, in the assay on K-562 leukemia, in the assay with ACHN renal and in the assay on LOX IMVI melanoma was more than 100 µM in each case. In addition, the TGI in the assay with HCT-116 colon, with HOP-92 NSCLC, with SNB-19 CNS, in the assay with OVCAR-4 ovarian, in the assay with SK-MEL-5 melanoma and in the assay with NCI-H226 lung was more than 100 µM throughout. Besides, the TGI is more than 100 µM with BT-549 breast; more than 100 µM with DU-145 prostate; 70.7 µM with HOP-62 NSCLC; more than 100 µM in the assay on UACC-62 melanoma; more than 100 µM in the assay with A498 renal.
Regarding `CN(C)c1ccc(C(=N/N=C2\C(=O)Nc3ccccc32)c2ccc(N(C)C)cc2)cc1`, the TGI in the assay on NCI/ADR-RES ovarian came out at 3.59 µM; in the assay on COLO 205 colon it was 3.34 µM; with A549 NSCLC it was 43.2 µM; in the assay with HCT-15 colon it was 18.7 µM; with K-562 leukemia it was 39.6 µM; in the assay on ACHN renal, 40.8 µM. The TGI with LOX IMVI melanoma was 28.7 µM; in the assay on T-47D breast, 35.5 µM; in the assay on HCT-116 colon, 12.3 µM; in the assay on HOP-92 NSCLC, 51.2 µM; in the assay on SNB-19 CNS, more than 100 µM; with OVCAR-4 ovarian it was more than 32.6 µM. The TGI is 13.9 µM in the assay on SK-MEL-5 melanoma; 43.3 µM in the assay on NCI-H226 lung; 38.6 µM in the assay on BT-549 breast; 17.5 µM with DU-145 prostate; 41.9 µM in the assay with HOP-62 NSCLC; 33.5 µM in the assay on UACC-62 melanoma. Moreover, the TGI in the assay with A498 renal is 16.8 µM.
`[O-][n+]1ccccc1Sc1nc(Sc2cccc[n+]2[O-])nc(Sc2cccc[n+]2[O-])n1`: the TGI is 29.1 µM with NCI/ADR-RES ovarian; 2.3 µM in the assay on COLO 205 colon; 13.9 µM with A549 NSCLC; 2.93 µM with HCT-15 colon; 4.06 µM in the assay on ACHN renal; 4 µM with LOX IMVI melanoma. Also, the TGI with T-47D breast turned out to be 8.85 µM; with HCT-116 colon it was 2.53 µM; in the assay with HOP-92 NSCLC, 3.03 µM; in the assay with SNB-19 CNS it was 26.1 µM; with OVCAR-4 ovarian it was 4.74 µM; in the assay with SK-MEL-5 melanoma, 3.07 µM. Also, the TGI was determined as 6.78 µM in the assay on NCI-H226 lung; 4.96 µM in the assay on BT-549 breast; 10.2 µM in the assay on DU-145 prostate; 9.17 µM in the assay on HOP-62 NSCLC; 3.67 µM in the assay with UACC-62 melanoma; 8.37 µM with A498 renal.
